Values quoted from earlier work in patent publication US9533037B2, “Methods for designing and preparing vaccines comprising directed sequence polymer compositions via the directed expansion of epitopes” (Declion Holdings LLC, priority 2007, dated 2017).

System: MBP83-99
Conditions: limited human trials

## AKPVVHLFANIVTPRTP
  immune reactivity against the peptide: long term immune reactivity
Multiple sclerosis
  clinical efficacy by evaluation using MRI: clinically ineffective
